Laboratory results from ChEMBL document CHEMBL3734671, “Design and synthesis of an in vivo-efficacious PIM3 kinase inhibitor as a candidate anti-pancreatic cancer agent” (Bioorg Med Chem Lett, 2015).
≈ marks a conversion by molar mass, not a printed value. Calls of active or inactive are those of the source. No cut-off for these calls is given here.

Experiments:
[1] = target: Serine/threonine-protein kinase pim-3 (Homo sapiens, UniProt Q86V86); experiment: Inhibition of PIM3 (unknown origin) using FL-Peptide 1 (5-FAM-AKRRRLSSLRA-COOH) substrate incubated for 2 hrs by electrophoretic mobility shift assay
[2] = Growth inhibition of human PANC1 cells after 72 hrs by CCK-8 assay; format: functional, cell-based; details: PANC-1, 72 h
[3] = target: Receptor-type tyrosine-protein kinase FLT3 (Homo sapiens) (UniProt P36888); experiment: Inhibition of FLT3 (unknown origin) at 200 nM by electrophoretic mobility shift assay
[4] = Aqueous solubility in PBS buffer solution at pH 7.4; format: physicochemical
[5] = Growth inhibition of human PCI35 cells after 72 hrs by CCK-8 assay; format: functional, cell-based; details: PCI35, 72 h
[6] = Growth inhibition of human L3.6PL cells after 72 hrs by CCK-8 assay; format: functional
[7] = Growth inhibition of human PCI66 cells after 72 hrs by CCK-8 assay; format: functional, cell-based; details: PCI66, 72 h
[8] = target: Serine/threonine-protein kinase pim-2 (Homo sapiens, UniProt Q9P1W9); experiment: Inhibition of PIM2 (unknown origin) by electrophoretic mobility shift assay
CYP2C9 = CYP2C9 (Homo sapiens, UniProt P11712); experiment: Inhibition of CYP2C9 (unknown origin) at 10 uM; format: ADME
[9] = Growth inhibition of human MIAPaCa2 cells after 72 hrs by CCK-8 assay; format: functional, cell-based; details: MIA PaCa-2, 72 h
[10] = Growth inhibition of human PCI66 cells at 10 uM after 72 hrs by CCK-8 assay; format: functional; details: PCI66, 72 h, read-out: GI
[11] = Growth inhibition of human MIAPaCa2 cells at 10 uM after 72 hrs by CCK-8 assay; format: functional; details: MIA PaCa-2, 72 h, read-out: GI
hERG (KCNH2) = hERG (KCNH2) (Homo sapiens, UniProt Q12809); experiment: Inhibition of human ERG at 10 uM by patch-clamp method
CYP1A2 = target: T1, CYP1A2 (Homo sapiens, UniProt P05177); experiment: Inhibition of CYP1A2 (unknown origin) at 10 uM; format: ADME
T1 sequence (P05177 whole entry): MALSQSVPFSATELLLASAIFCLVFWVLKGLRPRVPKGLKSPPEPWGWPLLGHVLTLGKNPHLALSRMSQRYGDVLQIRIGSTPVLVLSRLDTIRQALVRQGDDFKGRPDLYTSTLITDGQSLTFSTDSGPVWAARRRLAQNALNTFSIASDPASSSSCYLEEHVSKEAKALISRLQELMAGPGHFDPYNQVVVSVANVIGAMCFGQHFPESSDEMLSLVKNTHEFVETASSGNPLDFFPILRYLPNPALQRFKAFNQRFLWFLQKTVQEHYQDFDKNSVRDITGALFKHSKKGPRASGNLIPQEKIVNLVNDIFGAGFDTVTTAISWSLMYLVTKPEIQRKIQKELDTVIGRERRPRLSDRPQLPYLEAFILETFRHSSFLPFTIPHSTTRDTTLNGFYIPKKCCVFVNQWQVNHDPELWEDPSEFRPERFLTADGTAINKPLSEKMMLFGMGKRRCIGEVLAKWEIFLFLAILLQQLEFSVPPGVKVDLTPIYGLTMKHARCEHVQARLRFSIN

CYP3A4 = CYP3A4 (Homo sapiens, UniProt P08684); experiment: Inhibition of CYP3A4 (unknown origin) at 10 uM; format: ADME
CYP2D6 = CYP2D6 (Homo sapiens, UniProt P10635); experiment: Inhibition of CYP2D6 (unknown origin) at 10 uM; format: ADME
CYP2C19 = CYP2C19 (Homo sapiens, UniProt P33261); experiment: Inhibition of CYP2C19 (unknown origin) at 10 uM; format: ADME
Sequence of CYP2C19 (P33261 whole entry): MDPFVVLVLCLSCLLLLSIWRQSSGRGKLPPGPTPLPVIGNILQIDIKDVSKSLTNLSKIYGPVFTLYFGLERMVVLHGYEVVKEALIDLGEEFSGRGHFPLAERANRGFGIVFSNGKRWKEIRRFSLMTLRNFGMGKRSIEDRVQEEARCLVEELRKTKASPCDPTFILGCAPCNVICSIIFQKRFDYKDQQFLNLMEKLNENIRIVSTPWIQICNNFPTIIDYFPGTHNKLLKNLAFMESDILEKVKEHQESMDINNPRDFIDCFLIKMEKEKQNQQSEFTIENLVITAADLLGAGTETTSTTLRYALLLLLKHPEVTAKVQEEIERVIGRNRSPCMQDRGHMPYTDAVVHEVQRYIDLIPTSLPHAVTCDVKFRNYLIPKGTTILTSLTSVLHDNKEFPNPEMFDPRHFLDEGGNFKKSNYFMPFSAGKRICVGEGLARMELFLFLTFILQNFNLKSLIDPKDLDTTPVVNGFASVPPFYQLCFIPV

Sequence of CYP2C9 (P11712 whole entry): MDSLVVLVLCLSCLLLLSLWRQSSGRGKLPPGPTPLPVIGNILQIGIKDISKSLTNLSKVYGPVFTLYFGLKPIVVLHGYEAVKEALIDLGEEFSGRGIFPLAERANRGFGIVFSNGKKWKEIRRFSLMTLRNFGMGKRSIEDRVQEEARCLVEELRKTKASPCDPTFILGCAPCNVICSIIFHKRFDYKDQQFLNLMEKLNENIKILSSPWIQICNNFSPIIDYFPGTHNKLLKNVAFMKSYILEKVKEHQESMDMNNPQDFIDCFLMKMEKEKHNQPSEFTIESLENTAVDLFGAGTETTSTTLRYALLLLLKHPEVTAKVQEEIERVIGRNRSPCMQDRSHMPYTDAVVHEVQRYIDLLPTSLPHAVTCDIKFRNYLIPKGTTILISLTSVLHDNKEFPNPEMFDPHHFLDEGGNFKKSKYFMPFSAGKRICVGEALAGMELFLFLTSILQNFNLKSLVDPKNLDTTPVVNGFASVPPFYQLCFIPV
Sequence of Serine/threonine-protein kinase pim-2 (Q9P1W9 whole entry): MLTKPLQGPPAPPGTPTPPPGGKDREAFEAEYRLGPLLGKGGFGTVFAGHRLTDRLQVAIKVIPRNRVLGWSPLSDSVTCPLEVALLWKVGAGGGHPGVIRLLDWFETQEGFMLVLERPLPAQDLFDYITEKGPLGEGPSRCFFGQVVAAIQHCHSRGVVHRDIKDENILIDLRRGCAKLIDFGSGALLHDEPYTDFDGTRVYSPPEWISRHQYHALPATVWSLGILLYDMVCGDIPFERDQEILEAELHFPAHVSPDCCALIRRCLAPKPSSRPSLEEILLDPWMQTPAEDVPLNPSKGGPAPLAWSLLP
Sequence of CYP3A4 (P08684 whole entry): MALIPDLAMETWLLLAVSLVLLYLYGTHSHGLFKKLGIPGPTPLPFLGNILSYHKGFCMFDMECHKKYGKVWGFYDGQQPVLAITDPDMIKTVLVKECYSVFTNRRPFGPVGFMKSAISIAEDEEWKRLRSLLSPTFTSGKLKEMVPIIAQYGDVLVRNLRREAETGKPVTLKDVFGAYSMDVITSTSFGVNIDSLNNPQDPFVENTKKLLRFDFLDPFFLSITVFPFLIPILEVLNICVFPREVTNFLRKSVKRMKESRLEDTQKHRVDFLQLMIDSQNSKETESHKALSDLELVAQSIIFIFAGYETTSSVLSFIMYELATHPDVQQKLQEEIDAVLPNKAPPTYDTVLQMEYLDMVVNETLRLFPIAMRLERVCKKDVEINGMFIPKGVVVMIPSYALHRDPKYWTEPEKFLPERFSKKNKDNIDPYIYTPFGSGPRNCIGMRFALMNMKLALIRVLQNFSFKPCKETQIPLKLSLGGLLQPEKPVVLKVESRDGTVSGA
Sequence of Receptor-type tyrosine-protein kinase FLT3 (Homo sapiens) (P36888 whole entry): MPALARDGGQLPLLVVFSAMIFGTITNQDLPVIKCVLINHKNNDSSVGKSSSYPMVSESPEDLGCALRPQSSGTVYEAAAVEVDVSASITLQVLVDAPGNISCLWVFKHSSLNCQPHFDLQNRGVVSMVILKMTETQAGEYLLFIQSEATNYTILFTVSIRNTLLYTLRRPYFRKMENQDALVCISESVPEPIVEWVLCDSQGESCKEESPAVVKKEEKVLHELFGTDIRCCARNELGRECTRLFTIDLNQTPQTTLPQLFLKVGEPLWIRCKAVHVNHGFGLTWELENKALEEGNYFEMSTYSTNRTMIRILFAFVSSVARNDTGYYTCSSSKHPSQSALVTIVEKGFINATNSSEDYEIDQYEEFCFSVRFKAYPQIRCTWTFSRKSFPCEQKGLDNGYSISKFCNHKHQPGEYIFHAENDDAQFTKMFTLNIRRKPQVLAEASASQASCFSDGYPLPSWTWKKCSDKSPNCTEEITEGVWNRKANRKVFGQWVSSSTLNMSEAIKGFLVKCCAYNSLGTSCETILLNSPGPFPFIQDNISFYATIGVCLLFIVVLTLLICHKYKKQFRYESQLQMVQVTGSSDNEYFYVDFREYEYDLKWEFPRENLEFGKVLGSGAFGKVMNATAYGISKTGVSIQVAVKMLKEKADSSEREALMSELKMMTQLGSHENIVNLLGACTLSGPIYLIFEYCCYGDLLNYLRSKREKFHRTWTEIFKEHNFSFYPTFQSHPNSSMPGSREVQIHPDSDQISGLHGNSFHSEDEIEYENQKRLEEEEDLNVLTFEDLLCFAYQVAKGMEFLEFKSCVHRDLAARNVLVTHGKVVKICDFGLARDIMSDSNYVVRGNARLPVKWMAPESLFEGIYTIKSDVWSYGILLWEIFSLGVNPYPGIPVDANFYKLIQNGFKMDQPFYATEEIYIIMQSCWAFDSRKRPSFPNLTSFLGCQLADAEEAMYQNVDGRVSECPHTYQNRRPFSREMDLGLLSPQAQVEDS
Sequence of hERG (KCNH2) (Q12809 whole entry): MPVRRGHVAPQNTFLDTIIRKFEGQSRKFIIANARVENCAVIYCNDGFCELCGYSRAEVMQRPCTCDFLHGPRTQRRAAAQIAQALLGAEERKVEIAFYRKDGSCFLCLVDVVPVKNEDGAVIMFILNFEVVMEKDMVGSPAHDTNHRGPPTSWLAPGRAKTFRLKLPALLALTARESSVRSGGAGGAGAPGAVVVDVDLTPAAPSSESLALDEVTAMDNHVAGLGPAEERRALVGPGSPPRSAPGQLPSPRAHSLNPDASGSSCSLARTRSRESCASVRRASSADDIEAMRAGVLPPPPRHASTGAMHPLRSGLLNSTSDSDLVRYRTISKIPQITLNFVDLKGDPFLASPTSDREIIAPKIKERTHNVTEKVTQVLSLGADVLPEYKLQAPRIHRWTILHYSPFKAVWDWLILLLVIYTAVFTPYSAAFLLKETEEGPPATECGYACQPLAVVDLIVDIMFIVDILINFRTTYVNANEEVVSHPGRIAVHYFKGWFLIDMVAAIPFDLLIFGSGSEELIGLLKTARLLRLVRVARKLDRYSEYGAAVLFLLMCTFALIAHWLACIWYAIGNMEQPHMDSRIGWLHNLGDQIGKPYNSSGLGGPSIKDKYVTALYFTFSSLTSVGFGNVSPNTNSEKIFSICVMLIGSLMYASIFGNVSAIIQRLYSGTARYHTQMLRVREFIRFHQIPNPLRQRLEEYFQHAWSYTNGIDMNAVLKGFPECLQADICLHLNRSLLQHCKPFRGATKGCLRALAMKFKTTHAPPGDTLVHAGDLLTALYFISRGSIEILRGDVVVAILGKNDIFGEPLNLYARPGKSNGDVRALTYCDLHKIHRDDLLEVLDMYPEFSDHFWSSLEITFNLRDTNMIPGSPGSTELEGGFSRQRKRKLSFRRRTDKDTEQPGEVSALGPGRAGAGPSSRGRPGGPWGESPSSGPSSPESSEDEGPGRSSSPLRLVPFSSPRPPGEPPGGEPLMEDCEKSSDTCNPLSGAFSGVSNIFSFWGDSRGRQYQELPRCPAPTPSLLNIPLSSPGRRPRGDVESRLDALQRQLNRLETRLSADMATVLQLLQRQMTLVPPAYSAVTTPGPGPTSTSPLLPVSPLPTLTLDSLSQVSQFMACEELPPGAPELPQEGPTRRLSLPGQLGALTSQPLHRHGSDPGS
Sequence of CYP2D6 (P10635 whole entry): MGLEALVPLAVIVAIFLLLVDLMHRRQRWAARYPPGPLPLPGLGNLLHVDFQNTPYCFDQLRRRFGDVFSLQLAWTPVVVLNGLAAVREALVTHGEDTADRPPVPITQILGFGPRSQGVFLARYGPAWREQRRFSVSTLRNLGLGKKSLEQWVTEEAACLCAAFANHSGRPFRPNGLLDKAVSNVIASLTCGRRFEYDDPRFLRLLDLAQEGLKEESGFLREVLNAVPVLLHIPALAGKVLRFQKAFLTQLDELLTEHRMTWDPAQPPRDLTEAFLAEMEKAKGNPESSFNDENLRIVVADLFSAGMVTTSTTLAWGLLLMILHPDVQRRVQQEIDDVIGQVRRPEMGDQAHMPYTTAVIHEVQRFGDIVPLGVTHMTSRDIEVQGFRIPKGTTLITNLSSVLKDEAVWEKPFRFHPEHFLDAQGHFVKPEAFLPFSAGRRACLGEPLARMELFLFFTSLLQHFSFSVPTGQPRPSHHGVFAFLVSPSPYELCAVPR

| IC50 [1] | SMILES | IC50 [2] | also measured |
| --- | --- | --- | --- |
| 0.13 µM | COc1ccc2c(c1CN1CCNCC1)O/C(=C\c1c[nH]c3ccncc13)C2=O | > 10 µM | – |
| 0.0011 µM | COc1ccc2c(c1CN1CCNC[C@@H]1C)O/C(=C\c1n[nH]c3ncccc13)C2=O | > 10 µM | – |
| 0.0008 µM | COc1ccc2c(c1CN1CCN[C@@H](C)C1)O/C(=C\c1n[nH]c3ncccc13)C2=O | 6.9 µM | – |
| > 2 µM | COc1ccc2c(c1CN1CCNCC1)O/C(=C\c1c[nH]c3cccnc13)C2=O | > 10 µM | – |
| 0.003 µM | COCCOc1ccc2c(c1C(C)N1CCNCC1)O/C(=C\c1n[nH]c3ncccc13)C2=O (centres undefined) | 3.3 µM | inhibition at 10 µM (hERG (KCNH2)): 16%; inhibition at 10 µM (CYP1A2): < 1%; solubility [4]: 196 µM (≈ 88.1 µg/mL); inhibition at 10 µM (CYP3A4): < 1%; inhibition at 10 µM (CYP2D6): 83%; inhibition at 10 µM (CYP2C9): < 1%; inhibition at 10 µM (CYP2C19): < 1% |
| 0.0064 µM | CC(c1c(OCCO)ccc2c1O/C(=C\c1n[nH]c3ncccc13)C2=O)N1CCNCC1 (centres undefined) | > 10 µM | – |

Further lines, the molecule ahead of its results:

| SMILES | IC50 [1] | IC50 [2] | also measured |
| --- | --- | --- | --- |
| COc1ccc2c(c1CN1CCNCC1)O/C(=C\c1c[nH]c3ncccc13)C2=O | 0.0013 µM | 5.2 µM | – |
| COc1ccc2c(c1CN1CCN[C@H](C)C1)O/C(=C\c1n[nH]c3ncccc13)C2=O | 0.004 µM | 8.4 µM | – |
| COc1ccc2c(c1CN1CCNCC1)O/C(=C\c1c[nH]c3cnccc13)C2=O | 0.044 µM | > 10 µM | – |
| COc1ccc2c(c1CN1CCNCC1)O/C(=C\c1n[nH]c3ccccc13)C2=O | 0.025 µM | > 10 µM | inhibition [3]: Active; solubility [4]: 187 µM (≈ 73 µg/mL); IC50 [5]: > 10 µM; IC50 [6]: > 10 µM; IC50 [7]: > 10 µM; IC50 [8]: > 1 µM; inhibition at 10 µM (CYP2C9): < 1%; IC50 [9]: > 10 µM |
| C#Cc1cccc(Nc2ncnc3cc(OCCOC)c(OCCOC)cc23)c1 [ERLOTINIB] | – | 3.1 µM | IC50 [5]: 7.7 µM; inhibition of growth at 10 µM [10]: 12%; IC50 [6]: 4 µM; inhibition of growth at 10 µM [11]: < 1%; IC50 [7]: > 10 µM; IC50 [9]: > 10 µM |
| COc1ccc2c(c1CN1CCNC[C@H]1C)O/C(=C\c1n[nH]c3ncccc13)C2=O | 0.018 µM | > 10 µM | – |
